In ChEMBL document CHEMBL3885861, “Open TG-GATES”:

Organism: Rattus norvegicus
Assay: Open TG-GATES - Regimen: Single
Type: toxicity, organism-based, Sprague-Dawley
Parameters: regimen Single, gender Male, age 6 weeks
Details: in vivo, po, route gavage; for APTT / Bas / Eos / Fbg / Hb / Ht / Lym / MCH / MCHC / MCV / Mono / Neu / PT / Plat / RBC / Ret / WBC: tissue Blood; for KIDNEY_L / KIDNEY_R / KIDNEY_TOTAL: tissue Kidney; for LIVER: tissue Liver; for A/G / ALP / ALT / AST / BUN / CRE / Ca / Cl / DBIL / GLC / IP / K / LDH / Na / PL / RALB / TBIL / TC / TG / TP / gamma-GTP: tissue Plasma
[1] = 0 mg/kg, 3 h, dose level Control
[2] = 0 mg/kg, 6 h, dose level Control
[3] = 0 mg/kg, 9 h, dose level Control
[4] = 0 mg/kg, 24 h, dose level Control
[5] = 300 mg/kg, 24 h, dose level Low

## O=C(O)c1ccccc1Nc1ccccc1 [FENAMIC ACID]
[1]
  TERMINAL_BW: 209.2 g
  APTT: 16.5 s
  Bas: 0.4%
  Eos: 1%
  Fbg: 255.6 mg/dL
  Hb: 13.1 g/dL
  Ht: 39.6%
  Lym: 73.4%
  MCH: 20.8 pg
  MCHC: 33%
  MCV: 63.1 fL
  Mono: 2%
  Neu: 22.8%
  PT: 14 s
  Plat: 119.2 x10_4/uL
  RBC: 627.8 x10_4/ul
  Ret: 8.3%
  WBC: 95.4 x10_2/uL
  KIDNEY_L: 0.9 g
  KIDNEY_R: 0.9 g
  KIDNEY_TOTAL: 1.8 g
  LIVER: 8.8 g
  A/G: 0.9
  ALP: 1511 IU/L
  ALT: 33.2 IU/L
  AST: 75 IU/L
  BUN: 9.2 mg/dL
  CRE: 0.2 mg/dL
  Ca: 10.9 mg/dL
  Cl: 105.4 meq/L
  DBIL: 0.008 mg/dL
  GLC: 185.4 mg/dL
  IP: 9 mg/dL
  K: 4.2 meq/L
  LDH: 75.4 IU/L
  Na: 144 meq/L
  PL: 132 mg/dL
  RALB: 2.5 g/dL
  TBIL: 0.05 mg/dL
  TC: 69 mg/dL
  TG: 77.6 mg/dL
  TP: 5.4 g/dL
  gamma-GTP: 1 IU/L
[2]
  TERMINAL_BW: 204.2 g
  APTT: 18.5 s
  Bas: 0.4%
  Eos: 0.8%
  Fbg: 283.4 mg/dL
  Hb: 13.2 g/dL
  Ht: 39.8%
  Lym: 76.4%
  MCH: 20.7 pg
  MCHC: 33.1%
  MCV: 62.7 fL
  Mono: 2.8%
  Neu: 19.6%
  PT: 13.9 s
  Plat: 112.2 x10_4/uL
  RBC: 634.4 x10_4/ul
  Ret: 8.3%
  WBC: 84.7 x10_2/uL
  KIDNEY_L: 0.9 g
  KIDNEY_R: 0.9 g
  KIDNEY_TOTAL: 1.8 g
  LIVER: 8.2 g
  A/G: 0.9
  ALP: 1530.8 IU/L
  ALT: 35 IU/L
  AST: 77.4 IU/L
  BUN: 7.8 mg/dL
  CRE: 0.2 mg/dL
  Ca: 11.1 mg/dL
  Cl: 105 meq/L
  DBIL: 0.004 mg/dL
  GLC: 157.2 mg/dL
  IP: 9.1 mg/dL
  K: 4.1 meq/L
  LDH: 79.6 IU/L
  Na: 143 meq/L
  PL: 136.8 mg/dL
  RALB: 2.5 g/dL
  TBIL: 0.054 mg/dL
  TC: 75.6 mg/dL
  TG: 56.2 mg/dL
  TP: 5.4 g/dL
  gamma-GTP: 1.2 IU/L
[3]
  TERMINAL_BW: 204.4 g
  APTT: 18.2 s
  Bas: 0.6%
  Eos: 1%
  Fbg: 261.6 mg/dL
  Hb: 13.3 g/dL
  Ht: 40.4%
  Lym: 75.4%
  MCH: 20.5 pg
  MCHC: 33.1%
  MCV: 62.1 fL
  Mono: 1.8%
  Neu: 21.6%
  PT: 14.3 s
  Plat: 129.3 x10_4/uL
  RBC: 650.4 x10_4/ul
  Ret: 8.1%
  WBC: 69 x10_2/uL
  KIDNEY_L: 0.9 g
  KIDNEY_R: 0.9 g
  KIDNEY_TOTAL: 1.8 g
  LIVER: 7.9 g
  A/G: 0.9
  ALP: 1501.2 IU/L
  ALT: 35 IU/L
  AST: 77.6 IU/L
  BUN: 9.2 mg/dL
  CRE: 0.2 mg/dL
  Ca: 10.8 mg/dL
  Cl: 106 meq/L
  DBIL: 0 mg/dL
  GLC: 182.4 mg/dL
  IP: 9.6 mg/dL
  K: 3.9 meq/L
  LDH: 70 IU/L
  Na: 145 meq/L
  PL: 130.6 mg/dL
  RALB: 2.6 g/dL
  TBIL: 0.05 mg/dL
  TC: 72.8 mg/dL
  TG: 39 mg/dL
  TP: 5.5 g/dL
  gamma-GTP: 1.2 IU/L
[4]
  TERMINAL_BW: 218.8 g
  APTT: 16.2 s
  Bas: 0.8%
  Eos: 1%
  Fbg: 271 mg/dL
  Hb: 13.5 g/dL
  Ht: 40.9%
  Lym: 80.6%
  MCH: 20.9 pg
  MCHC: 33%
  MCV: 63.3 fL
  Mono: 2%
  Neu: 15.2%
  PT: 14.4 s
  Plat: 124.1 x10_4/uL
  RBC: 646.8 x10_4/ul
  Ret: 7%
  WBC: 111.8 x10_2/uL
  KIDNEY_L: 1 g
  KIDNEY_R: 1 g
  KIDNEY_TOTAL: 1.9 g
  LIVER: 9.7 g
  A/G: 0.9
  ALP: 1870.8 IU/L
  ALT: 44.4 IU/L
  AST: 73.8 IU/L
  BUN: 13.4 mg/dL
  CRE: 0.2 mg/dL
  Ca: 11.2 mg/dL
  Cl: 105.2 meq/L
  DBIL: 0.008 mg/dL
  GLC: 177.2 mg/dL
  IP: 7.8 mg/dL
  K: 4.2 meq/L
  LDH: 85.4 IU/L
  Na: 142.6 meq/L
  PL: 148.4 mg/dL
  RALB: 2.7 g/dL
  TBIL: 0.034 mg/dL
  TC: 77.6 mg/dL
  TG: 82.6 mg/dL
  TP: 5.6 g/dL
  gamma-GTP: 1 IU/L
300 mg/kg, 3 h, dose level Low
  TERMINAL_BW: 209.1 g
  APTT: 16.8 s
  Bas: 0.8%
  Eos: 0.8%
  Fbg: 249.8 mg/dL
  Hb: 13.2 g/dL
  Ht: 40%
  Lym: 79.8%
  MCH: 20.5 pg
  MCHC: 33%
  MCV: 62.3 fL
  Mono: 2.2%
  Neu: 16.2%
  PT: 14.3 s
  Plat: 113.6 x10_4/uL
  RBC: 642.2 x10_4/ul
  Ret: 8.8%
  WBC: 95.7 x10_2/uL
  KIDNEY_L: 1 g
  KIDNEY_R: 0.9 g
  KIDNEY_TOTAL: 1.9 g
  LIVER: 8.2 g
  A/G: 0.9
  ALP: 1661.4 IU/L
  ALT: 38.2 IU/L
  AST: 73.4 IU/L
  BUN: 12.4 mg/dL
  CRE: 0.2 mg/dL
  Ca: 11.1 mg/dL
  Cl: 107.2 meq/L
  GLC: 187.4 mg/dL
  IP: 9.6 mg/dL
  K: 4.4 meq/L
  LDH: 78.4 IU/L
  Na: 144.4 meq/L
  PL: 124.6 mg/dL
  RALB: 2.5 g/dL
  TC: 67.4 mg/dL
  TG: 93.4 mg/dL
  TP: 5.4 g/dL
  gamma-GTP: 1 IU/L
300 mg/kg, 6 h, dose level Low
  TERMINAL_BW: 201.5 g
  APTT: 16.7 s
  Bas: 0.6%
  Eos: 0.8%
  Fbg: 248.8 mg/dL
  Hb: 13.5 g/dL
  Ht: 40.6%
  Lym: 74.6%
  MCH: 20.9 pg
  MCHC: 33.3%
  MCV: 62.9 fL
  Mono: 2.4%
  Neu: 21.4%
  PT: 14.5 s
  Plat: 114.4 x10_4/uL
  RBC: 645.8 x10_4/ul
  Ret: 8%
  WBC: 96.1 x10_2/uL
  KIDNEY_L: 0.9 g
  KIDNEY_R: 0.9 g
  KIDNEY_TOTAL: 1.8 g
  LIVER: 7.3 g
  A/G: 0.9
  ALP: 1342.6 IU/L
  ALT: 38.4 IU/L
  AST: 73 IU/L
  BUN: 8.8 mg/dL
  CRE: 0.2 mg/dL
  Ca: 10.7 mg/dL
  Cl: 107.4 meq/L
  GLC: 152.8 mg/dL
  IP: 9.9 mg/dL
  K: 3.9 meq/L
  LDH: 66.6 IU/L
  Na: 144.2 meq/L
  PL: 116.8 mg/dL
  RALB: 2.5 g/dL
  TC: 58.6 mg/dL
  TG: 38.8 mg/dL
  TP: 5.3 g/dL
  gamma-GTP: 1.2 IU/L
300 mg/kg, 9 h, dose level Low
  TERMINAL_BW: 205.1 g
  APTT: 17.9 s
  Bas: 0.6%
  Eos: 1%
  Fbg: 262.6 mg/dL
  Hb: 13.5 g/dL
  Ht: 40.6%
  Lym: 71.8%
  MCH: 20.9 pg
  MCHC: 33.1%
  MCV: 63.2 fL
  Mono: 2%
  Neu: 24.4%
  PT: 14.9 s
  Plat: 116.7 x10_4/uL
  RBC: 642.8 x10_4/ul
  Ret: 7.8%
  WBC: 78.3 x10_2/uL
  KIDNEY_L: 0.9 g
  KIDNEY_R: 0.9 g
  KIDNEY_TOTAL: 1.8 g
  LIVER: 7.2 g
  A/G: 0.9
  ALP: 1734.8 IU/L
  ALT: 35 IU/L
  AST: 69.6 IU/L
  BUN: 13.4 mg/dL
  CRE: 0.2 mg/dL
  Ca: 10.9 mg/dL
  Cl: 108 meq/L
  GLC: 149 mg/dL
  IP: 11 mg/dL
  K: 3.8 meq/L
  LDH: 60.6 IU/L
  Na: 146 meq/L
  PL: 121.6 mg/dL
  RALB: 2.6 g/dL
  TC: 59.4 mg/dL
  TG: 39.8 mg/dL
  TP: 5.5 g/dL
  gamma-GTP: 1.2 IU/L
[5]
  TERMINAL_BW: 218.8 g
  APTT: 17.6 s
  Bas: 0.6%
  Eos: 0.6%
  Fbg: 269.2 mg/dL
  Hb: 13.3 g/dL
  Ht: 40.1%
  Lym: 80.6%
  MCH: 20.9 pg
  MCHC: 33.1%
  MCV: 63.2 fL
  Mono: 2.6%
  Neu: 15%
  PT: 14.4 s
  Plat: 121.2 x10_4/uL
  RBC: 634.4 x10_4/ul
  Ret: 7.4%
  WBC: 115.6 x10_2/uL
  KIDNEY_L: 1 g
  KIDNEY_R: 1 g
  KIDNEY_TOTAL: 2 g
  LIVER: 10.2 g
  A/G: 0.9
  ALP: 1785.8 IU/L
  ALT: 38.6 IU/L
  AST: 71.2 IU/L
  BUN: 14 mg/dL
  CRE: 0.2 mg/dL
  Ca: 11.2 mg/dL
  Cl: 105.6 meq/L
  GLC: 173.4 mg/dL
  IP: 6.9 mg/dL
  K: 4 meq/L
  LDH: 130.6 IU/L
  Na: 144.2 meq/L
  PL: 143.2 mg/dL
  RALB: 2.6 g/dL
